Values quoted from earlier work as cited in PMC12854702 (Synlett : accounts and rapid communications in synthetic …, 2025).

Experiments:
human SLACK = conditions: Tl+-flux, HEK-293 cells stably expressing human SLACK
[1] = tested on: serotonin 5-HT2A receptor

antagonism of dopamine D2 receptor (dopamine D2 receptor): potent antagonist | antagonism of serotonin 5-HT2A receptor [1]: potent antagonist | antagonism of histamine H1 receptor (histamine H1 receptor): potent antagonist
SMILES: CN1CCN(C2=Nc3ccccc3Oc3ccc(Cl)cc32)CC1 [loxapine]
SLACK activation Emax (human SLACK): 100%
